Results: patent US10017506B2, “ATX modulating agents” (BIOGEN MA INC., priority 2012, dated 2018)

Molecular target: T1, Human ATX protein (Homo sapiens, UniProt Q13822)
T1 construct: made in house
Assay: ATX biochemical FRET assay with FS-3 substrate
Details: FRET substrate FS-3 2 μM, ATX 1.0 μg/mL, 30 minutes pre-incubation, 2 hours at room temperature; read-out: IC50
Outline: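 Enzyme at 1.0 μg/mL final, pre-incubated with compound (10-point, 3-fold series) for 30 min at RT in Tris pH 7.4 buffer with NaCl, KCl, CaCl2, MgCl2 and 1 mg/mL fatty-acid-free BSA. After FS-3 addition, 2 h at RT protected from light; fluorescence at 485/538 nm.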

IC50 [nM] | SMILES
≤ 100 | CC(C)(C)[C@H]1CC[C@H](Nc2cc3cc(C(=O)N[C@H]4CC[C@@H](C(=O)O)CC4)ccc3cn2)CC1 [Example 154, cis-4-(3-((trans-4-(tert-butyl)cyclohexyl)amino)isoquinoline-6-carboxamido)cyclohexane carboxylic acid]
≤ 100 | CC(C)(C)[C@H]1CC[C@H](Nc2cc3cc(C(=O)N[C@H]4CC[C@H](C(=O)O)CC4)ccc3cn2)CC1 [Example 155, trans-4-(3-((trans-4-(tert-butyl)cyclohexyl)amino)isoquinoline-6-carboxamido)cyclohexanecarboxylic acid]
